The values below come from PMC9515143, “Phosphorylation of Jhd2 by the Ras-cAMP-PKA(Tpk2) pathway regulates histone modifications and autophagy” (Nature Communications, 2022).

Where a SMILES comes first, the peptide text is derived from it. The star is where a group is joined. Cbz = O=C(OCc1ccccc1)*

The test system of one assay is H3K4me3. The assay can be described thus: Western blot of H3K4me3 in yeast cells treated with glucose, 2-DG, FBP or pyruvate. It counts as cell-based, budding yeast (Saccharomyces cerevisiae). The conditions noted are these: for H3K4me3 level after FBP or pyruvate treatment: spheroplasts (Zymolase), different concentrations of FBP or pyruvate, 3 hr. From the text:
To examine the effect of glucose on histone modifications, we grew yeast cells in 2% glucose-containing medium (YPD) until log phase. Cells were collected and then grown in the medium containing different concentrations of glucose for 0.5 hr.
PKA is activated by cyclic AMP (cAMP), which binds to its inhibitory subunit, Bcy1 and causes its dissociation (Fig. 1g). We thus examined H3K4me3 in deletion mutants of cAMP phosphodiesterases PDE1 and PDE2, which encode enzymes to hydrolyze cAMP and inactivate PKA[39],[40]. […] To test whether the Ras-cAMP-PKA pathway mediates glucose-induced H3K4me3, we examined H3K4me3 in ras1Δ and ras2Δ mutants. […] Ras1/2 can be activated by glycolysis-derived fructose-1,6-biphosphate (FBP) via Cdc25[6] (Fig. 1g).
To examine the effect of glucose on histone modifications, yeast cells were grown in 2% glucose-containing YPD (Yeast Extract Peptone Dextrose) medium until OD600 of 0.7–1.0. Cells were then collected, washed and resuspended in YP medium for 3 hr followed by treatment with different concentrations of glucose for 0.5 hr. For 1NM-PP1 (MCE, HY-13804) treatment, cells were grown in 2% YPD until OD600 of 0.7–1.0. Cells were then treated with 25 μM 1NM-PP1 for 0.5 hr. For FBP and pyruvate treatment, cells were pre-treated with Zymolase (Mpbio, 08320921) to increase the permeability. In brief, cells were grown in YPD medium until OD600 of 0.7–1.0, centrifuged and resuspended in 1 ml SB buffer (100 mM Sorbitol, 20 mM Tris pH 7.4). 10 μl Zymolase was then added and incubated at 30 °C for 15 min. The spheroplasts were washed and cultured in YPD medium containing different concentrations of FBP and pyruvate for 3 hr.
(§1) Cells were grown in 5 ml YPD or selective medium until OD600 of 0.7–1.0. Cells were harvested and lysed in alkaline lysis buffer (2 M NaOH, 8% 2-mercaptoethanol). After centrifugation, the protein pellet was resuspended in 150 μl 2×SDS-sample buffer. Protein samples were separated by 8–15% SDS-PAGE and transferred to PVDF membrane. The blots were probed with primary antibodies followed by incubation with horseradish peroxidase-labelled IgG secondary antibodies. The protein bands were visualized using the ECL Chemiluminescence Detection Kit (Bio-Rad, 170–5061) and quantified with Image J software (v.1.8.0).
(In general: A western blot detects proteins with antibodies after separation by electrophoresis.)

Another assay concerns the target T1, WT Jhd2 (Saccharomyces cerevisiae, UniProt P47156).
T1 construct: 3xFLAG (C); made in house; host or cells: Saccharomyces cerevisiae BY4741, genomic JHD2-3xFLAG::KAN
Nature of the assay: Jhd2 protein level in WT Jhd2 cells with MG132. It counts as cell-based, budding yeast (Saccharomyces cerevisiae). The conditions noted are these: for Jhd2/GAPDH: WT +MG132, WT without MG132 = 1, Figure 5c. The procedure:
(§2) To determine how Tpk2-mediated Jhd2 phosphorylation regulates Jhd2 stability, we treated WT Jhd2 and Jhd2-S321A, S340A cells with MG132, the proteasome inhibitor. […] We also examined Jhd2 in a temperature-sensitive proteasome-deficient mutant (cim3-1), which is defective in ATPase activity of 26 S proteasome.
as §1

In a further assay the target is T2, Jhd2-S321A, S340A (Saccharomyces cerevisiae, UniProt P47156, S321A/S340A).
T2 construct: 3xFLAG (C); made in house; host or cells: Saccharomyces cerevisiae BY4741, genomic JHD2 S321A S340A-3xFLAG
The assay can be described thus: Jhd2 protein level in Jhd2-S321A, S340A cells with MG132. It counts as cell-based, budding yeast (Saccharomyces cerevisiae). The conditions noted are these: for Jhd2/GAPDH: Jhd2-S321A,S340A +MG132, Figure 5c. How it is done:
as §2, §1

A further assay concerns the target Rpd3 (UniProt P32561). The assay can be described thus: in vivo co-IP, Western blot. The conditions noted are these: reference: WT Jhd2; sites S321,S340.
Assay [1] deals with histone H3 1-23 (UniProt P61830). Nature of the assay: biotinylated peptide pull-down, Western blot. To be noted: reference: WT Jhd2; sites S321,S340.
The target is the same in assay [2]. The assay can be described thus: biotinylated peptide pull-down, Western blot. The conditions noted are these: reference: WT Jhd2; sites S321,S340. This is another data set of the same source.
Assay [3] has the same target. The assay can be described thus: biotinylated peptide pull-down, Western blot. To be noted: reference: WT Jhd2; sites S321,S340. This is another data set of the same source.
Another assay addresses T3, Jhd2-FLAG (S. cerevisiae (budding yeast), UniProt P47156 1-728, phosphoserine at 321 and 340 (phosphorylated in vivo by Tpk2; extent not stated)).
T3 construct: Jhd2, JmjC domain-containing H3K4 demethylase of budding yeast; tag integrated at the genomic locus; this is named in the assay format or readout; also called WT Jhd2; FLAG-purified Jhd2; not shown: FLAG, C-terminal, kept
T3 sequence (looked up): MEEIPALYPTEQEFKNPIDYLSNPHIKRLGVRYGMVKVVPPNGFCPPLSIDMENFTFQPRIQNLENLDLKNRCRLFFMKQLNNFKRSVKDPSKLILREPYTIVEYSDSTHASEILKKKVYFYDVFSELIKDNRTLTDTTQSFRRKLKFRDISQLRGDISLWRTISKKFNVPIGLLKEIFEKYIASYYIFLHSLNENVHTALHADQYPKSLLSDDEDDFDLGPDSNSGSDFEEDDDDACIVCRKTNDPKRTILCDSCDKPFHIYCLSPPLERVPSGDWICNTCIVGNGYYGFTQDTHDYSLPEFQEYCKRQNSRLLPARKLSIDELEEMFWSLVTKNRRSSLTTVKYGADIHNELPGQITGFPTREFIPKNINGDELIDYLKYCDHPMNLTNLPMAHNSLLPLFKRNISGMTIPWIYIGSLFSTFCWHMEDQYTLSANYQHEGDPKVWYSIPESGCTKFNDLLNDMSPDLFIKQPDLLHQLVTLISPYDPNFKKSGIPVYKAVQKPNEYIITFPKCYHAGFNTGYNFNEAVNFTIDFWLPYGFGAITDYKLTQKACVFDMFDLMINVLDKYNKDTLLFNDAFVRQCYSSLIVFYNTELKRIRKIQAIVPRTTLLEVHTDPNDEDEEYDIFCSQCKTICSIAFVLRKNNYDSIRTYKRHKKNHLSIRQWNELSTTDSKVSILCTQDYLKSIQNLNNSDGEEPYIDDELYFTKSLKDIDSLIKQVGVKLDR
Nature of the assay: co-IP; yeast whole cell extract digested with MNase, anti-FLAG M2 agarose 1 hr 4 °C, washed with 350 mM NaCl, 0.1% NP-40, Western blots; WT and tpk2Δ cells. To be noted: partners not purified.

For assay [4], the target named is T4, Tpk2-phosphorylated Jhd2-FLAG (S. cerevisiae (budding yeast), UniProt P47156 1-728, phosphoserine at 321 and 340 (by purified Tpk2 in vitro)).
T4 construct: Jhd2 of budding yeast, phosphorylated in vitro by Tpk2 at S321 and S340; also called immobilized phosphorylated Jhd2; not shown: FLAG, C-terminal, kept
T4 sequence (looked up): T3 sequence (looked up)
The assay can be described thus: co-IP; in vitro: dephosphorylated Jhd2 immobilized on anti-FLAG beads, incubated with or without purified Tpk2, Tpk2 removed, then incubated with purified Not4. To be noted: both partners purified.

T2 sequence (P47156 whole entry S321A/S340A): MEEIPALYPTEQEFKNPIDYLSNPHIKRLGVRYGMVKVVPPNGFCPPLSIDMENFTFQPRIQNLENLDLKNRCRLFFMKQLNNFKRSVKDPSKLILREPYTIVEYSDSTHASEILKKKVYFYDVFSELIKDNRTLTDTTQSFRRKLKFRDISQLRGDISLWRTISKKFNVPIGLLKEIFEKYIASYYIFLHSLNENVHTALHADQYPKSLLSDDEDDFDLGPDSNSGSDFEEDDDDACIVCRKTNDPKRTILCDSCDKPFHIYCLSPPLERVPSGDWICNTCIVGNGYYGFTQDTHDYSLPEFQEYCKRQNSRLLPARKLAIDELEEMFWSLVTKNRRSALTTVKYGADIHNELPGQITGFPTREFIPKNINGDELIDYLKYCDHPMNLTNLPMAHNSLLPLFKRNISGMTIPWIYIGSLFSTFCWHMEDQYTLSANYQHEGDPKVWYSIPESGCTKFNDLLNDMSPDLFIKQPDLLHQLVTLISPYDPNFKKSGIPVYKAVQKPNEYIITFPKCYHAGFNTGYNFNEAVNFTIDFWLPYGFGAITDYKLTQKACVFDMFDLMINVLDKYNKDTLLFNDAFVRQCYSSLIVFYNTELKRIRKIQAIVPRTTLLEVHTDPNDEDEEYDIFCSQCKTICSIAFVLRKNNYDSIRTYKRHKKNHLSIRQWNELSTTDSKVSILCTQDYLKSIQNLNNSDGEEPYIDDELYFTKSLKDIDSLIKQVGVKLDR

`O=CC[C@@H](O)[C@H](O)[C@H](O)CO` [2-DG, 2-Deoxy-D-glucose]: the “H3K4me3 level after blocking glycolysis” value in the assay on H3K4me3 (2-DG) is reported as “significantly reduced H3K4me3”.

Regarding `O=C(COP(=O)(O)O)[C@@H](O)[C@H](O)[C@H](O)COP(=O)(O)O` [FBP, fructose-1,6-biphosphate], the “H3K4me3 level after FBP or pyruvate treatment” value in the assay on H3K4me3 is on record as “increased H3K4me3 in a dose-dependent manner”.

Consider `CC(C)C[C@@H](C=O)NC(=O)[C@H](CC(C)C)NC(=O)[C@H](CC(C)C)NC(=O)OCc1ccccc1` [MG132] (Cbz-Leu-Leu-Leu-aldehyde), for which the “Jhd2 protein level, WT Jhd2” value at WT Jhd2 (MG132, Western blot) is recorded as “significantly increased WT Jhd2 protein levels”. For the same molecule, the Jhd2/GAPDH was 1.233 at WT Jhd2 (replicate 1); 1.396 at WT Jhd2 (replicate 2); 1.451 on WT Jhd2 (replicate 3); 1.135 on WT Jhd2 (replicate 4); 2.104 at Jhd2-S321A, S340A (WT without MG132 = 1, Jhd2-S321A,S340A without MG132 = 1.51305, replicate 4); 1.451 on Jhd2-S321A, S340A (WT without MG132 = 1, Jhd2-S321A,S340A without MG132 = 1.6488, replicate 2). Moreover, the Jhd2/GAPDH at Jhd2-S321A, S340A (WT without MG132 = 1, Jhd2-S321A,S340A without MG132 = 1.64948, replicate 1) stood at 1.2682; at Jhd2-S321A, S340A (WT without MG132 = 1, Jhd2-S321A,S340A without MG132 = 1.95118, replicate 3) it was 2.131. Further, the “Jhd2 protein level, Jhd2-S321A, S340A” value at Jhd2-S321A, S340A (MG132, Western blot) was “had no significant effect on Jhd2-S321A, S340A protein level”.

`CC(=O)C(=O)O` [pyruvate]: the “H3K4me3 level after FBP or pyruvate treatment” value in the assay with H3K4me3 is reported as “FBP but not pyruvate treatment increased H3K4me3”.

Turning to “Jhd2 (from UniProt P47156) Jhd2-S321A, S340A”, the “binding against the reference” value with Rpd3, with histone H3 1-23 [1], with histone H3 1-23 [2] and in the assay with histone H3 1-23 [3] was “stronger” throughout.

B1: Not4 (enzyme, S. cerevisiae (budding yeast), UniProt P34909 1-587, looked up)
chain: MMNPHVQENLQAIHNALSNFDTSFLSEDEEDYCPLCIEPMDITDKNFFPCPCGYQICQFCYNNIRQNPELNGRCPACRRKYDDENVRYVTLSPEELKMERAKLARKEKERKHREKERKENEYTNRKHLSGTRVIQKNLVYVVGINPPVPYEEVAPTLKSEKYFGQYGKINKIVVNRKTPHSNNTTSEHYHHHSPGYGVYITFGSKDDAARCIAQVDGTYMDGRLIKAAYGTTKYCSSYLRGLPCPNPNCMFLHEPGEEADSFNKRELHNKQQAQQQSGGTAFTRSGIHNNISTSTAGSNTNLLSENFTGTPSPAAMRAQLHHDSHTNAGTPVLTPAPVPAGSNPWGVTQSATPVTSINLSKNSSSINLPTLNDSLGHHTTPTTENTITSTTTTTNTNATSHSHGSKKKQSLAAEEYKDPYDALGNAVDFLDARLHSLSNYQKRPISIKSNIIDEETYKKYPSLFSWDKIEASKKSDNTLANKLVEILAIKPIDYTASVVQFLQSVNVGVNDNITITDNTKTPTQPIRLQTVSQQIQPPLNVSTPPPGIFGPQHKVPIQQQQMGDTSSRNSSDLLNQLINGRKIIAGN
notes: Not4, E3 ubiquitin ligase of budding yeast; also called purified Not4; source: S. cerevisiae
On to B1, for which the binding result (with Jhd2-FLAG; in [4]) was “binds” each time.
